According to patent publication US12653860B2, “Compositions and methods for editing beta-globin for treatment of hemaglobinopathies” (Vertex Pharmaceuticals Incorporated, priority 2019, dated 2026):

Tests used:
Assay type in all cases: cell-based
[1] = tested on: BFP gene encoded in the AAVS1 locus of HEK293 T cells; test: BFP to GFP reporter assay of HDR repair (flow cytometry); conditions: for HDR efficiency (improvement): 1.25 μM SCR7 or 10 μM RS-1, any ssODN construct, relative to DMSO alone
Protocol: An in vitro assay was conducted to determine the ability of various inhibitors and enhancers to improve the efficiency of HDR repair in HEK293 T cells. Specifically, a fluorescent reporter-based screening approach was developed to identify molecules that enhance gene-editing by HDR. A reporter system was generated in HEK293 T cells comprising a genomic AAVS1 locus that encoded either a blue fluorescent protein (BFP) or a green fluorescent protein (GFP) within the AAVS1 locus. A gene encoding BFP can be converted to a gene encoding GFP by substitution of cytosine at position 199 to uridine (e.g., a C to U transition at position 199). By introducing a DSB within the BFP gene using a CRISPR/Cas9 gene-editing system, a homology donor DNA encoding the nucleotide substitution can be used to edit the BFP gene to a GFP gene by HDR repair. Thus, a gene edit that induces a C to U transition at position 199 results in a change in cellular fluorescence. A change in the fluorescence of the cell measured by flow cytometry can be used to quantify efficiency of HDR repair. Additionally, the reverse gene edit can be performed for an AAVS1 locus encoding a GFP gene, wherein a GFP can be converted to BFP by substitution of uridine at position 199 to cytosine.
To create the reporter system, an AAV-based homology donor DNA encoding either BFP or GFP was created. The AAV-BFP or AAV-GFP donor was flanked by homology arms that were 1000 base pairs in length and expression of BFP or GFP was driven by the MND promoter (e.g., a synthetic promoter that contains the U3 region of a modified Moloney murine leukemia virus long term terminal repeat with myeloproliferative sarcoma virus enhancer and deleted negative control region, SEQ ID NO: 58). The viral DNA was packaged into capsids of adeno-associated virus serotype 6 (AAV6) vector. Either the BFP or GFP donor was introduced using the AAV6 vector into the AAVS1 locus in HEK293 T cells by homologous recombination using CRISPR-Cas9 as follows: purified Cas9 protein was complexed with two different single gRNAs (sgRNAs) targeting the AAVS1 locus at SEQ ID NO: 3 (spacer sequence identified by SEQ ID NO: 4; gRNA obtained from Maxcyte) or SEQ ID NO: 5 (spacer sequence identified by SEQ ID NO: 6; gRNA obtained from Thermo Fisher). Cas9 protein used in the Exemplary section provided herein refers to Cas9 polypeptide derived from S pyogenes (SpCas9), unless indicated otherwise.
The Cas9-sgRNA complex was electroporated into the HEK293 T cells using the Lonza Nucleofector program CM-130. Approximately, 2 hours after electroporation, the cells were infected with various viral doses of AAV6 encoding a BFP (SEQ ID NO: 44) or GFP homology donor (SEQ ID NO: 47). One week later, cells were analyzed by flow cytometry to verify integration and expression of BFP or GFP in the AAVS1 locus. HEK293 T cells expressing BFP or GFP were sorted into single cells in 96-well plates. After −2 weeks of growth, DNA extracted from individual cells was analyzed for precise integration of the respective BFP or GFP gene into the AAVS1 locus by long-range PCR. This PCR analysis allowed for determination of whether the BFP/GFP gene was integrated in one or both alleles of the AAVS1 locus.
To introduce a gene edit that converts BFP to GFP, cells were electroporated with ribonucleoprotein (RNP) comprised of Cas9 and sgRNA that targets the BFP gene encoded in the AAVS1 locus. The sgRNA targeted a sequence in the BFP gene identified by SEQ ID NO: 7 (sgRNA spacer sequence identified by SEQ ID NO: 8). The sgRNA were prepared using a standard sgRNA cassette specific to SpCas9, as indicated by SEQ ID NO: 2 (wherein a, c, g, u represent 2′ O-methyl phosphorothioate nucleotides; s represents phosphorothioate nucleotides; and A, C, G, U, N represent canonical RNA nucleotides). The gRNAs used in the Exemplary section provided herein were sgRNAs prepared with the SpCas9 sgRNA cassette unless indicated otherwise. […]

[2] = tested on: GSD1a locus in HEK293 T cells; test: Gene correction by NHEJ repair at GSD1a locus with dsDNA donors; conditions: dsDNA donors 50-0 or 150-0; 2.5 μM Nu7441, 1.25 μM SCR7 or 10 μM RS-1; vs DMSO alone; FIG. 3
Protocol: The effect of Nu7441 treatment on gene correction by the NHEJ pathway was also evaluated. To do so, the cells were transfected with two different dsDNA donors: 50-0 (SEQ ID NO: 37) or 150-0 (SEQ ID NO: 38). Cells were edited with 1.5 g dsDNA donor. These dsDNA donors, lacking homology arms, introduce a second 3′ splice site into exon 2 at the GSD1a locus when inserted into the cut site induced by the Cas9-guide complex by NHEJ repair. The cells were treated with 2.5 μM Nu7441, 1.25 μM SCR7, or 10 μM RS-1 and gene correction by NHEJ repair was evaluated. […] Treatment with SCR7 or RS-1 had no effect over DMSO alone.

[3] = tested on: GSD1a locus in HEK293 T cells; test: HDR editing of GSD1a locus with ssODN homology donors; conditions: FIG. 3; for HDR efficiency: 1.25 μM SCR7 or 10 μM RS-1
Protocol: 2×10^5 cells were edited with 1 μM Cas9 and 1.5 μM gRNA. The cells were transfected with two different ssODNs homology donors: 93-50 (SEQ ID NO: 39) or 25-100 (SEQ ID NO: 40). These two ssODN donors contain homology arms spanning both sides of the double-stranded break induced by the Cas9-guide and facilitate correction of a point mutation in the G6PC gene sequence by HDR. Cells were edited with 100 μM ssODN. The cells were treated with 2.5 μM Nu7441, 1.25 μM SCR7, or 10 μM RS-1 and the effect on HDR efficiency was evaluated.

Compound	HDR efficiency (improvement) ([1]; FIG. 1A)	gene correction by NHEJ repair [2]	HDR efficiency [3]	HDR efficiency, fold higher ([1]; 2.5 μM Nu7441, each of four ssODN constructs, FIG. 1A)	HDR efficiency, high vs low concentration ([1]; 2.5 μM vs 0.6 μM Nu7441, FIG. 1B, 1C)	HDR efficiency at higher concentrations ([1]; concentrations of Nu7441 higher than 2.5 μM)	HDR efficiency, fold increase over DMSO alone ([3]; 2.5 μM Nu7441, ssODN 93-50 or 25-100)	HDR efficiency ([1]; different doses of mRNA encoding i53, ssODNs Hn-91-61 and Ht-39-88, FIG. 1D)
O=C(Nc1ccc(Br)cc1)c1ccc(Br)c(S(=O)(=O)NCc2ccccc2)c1 [RS-1]	no improvement in HDR efficiency	no effect	no effect	–	–	–	–	–
O=c1cc(N2CCOCC2)oc2c(-c3cccc4c3sc3ccccc34)cccc12 [Nu7441]	–	substantial decrease in gene correction	–	approximately 3 fold	approximately 1.5 fold	no further improvement in HDR efficiency	approximately 1.7 fold	–
i53: polypeptide inhibitor of 53BP1 (SEQ ID NO: 70), delivered as mRNA (ORF SEQ ID NO: 69)	–	–	–	–	–	–	–	HDR efficiency increased
O=c1[nH]c(=S)[nH]c(N=Cc2ccccc2)c1N=Cc1ccccc1 [SCR7]	no improvement in HDR efficiency	no effect	no effect	–	–	–	–	–
